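Following 48 hours of exposure in 96-well plates, responses at five concentrations were used to interpolate endpoints linearly. TGI: concentration producing complete growth inhibition.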
Experiments:
Test in all cases: NCI tumour cell line growth inhibition, 48 h
786-0 renal = system: 786-0 renal
A549 NSCLC = system: A549 NSCLC
ACHN renal = system: ACHN renal
CAKI-1 renal = system: CAKI-1 renal
CCRF-CEM leukemia = system: CCRF-CEM leukemia
COLO 205 colon = system: COLO 205 colon
DLD-1 colon = system: DLD-1 colon
DMS 114 small cell lung = system: DMS 114 small cell lung
DMS 273 small cell lung = system: DMS 273 small cell lung
EKVX NSCLC = system: EKVX NSCLC
HCC-2998 colon = system: HCC-2998 colon
HCT-116 colon = system: HCT-116 colon
HCT-15 colon = system: HCT-15 colon
HL-60(TB) leukemia = system: HL-60(TB) leukemia
HOP-18 NSCLC = system: HOP-18 NSCLC
HOP-62 NSCLC = system: HOP-62 NSCLC
HOP-92 NSCLC = system: HOP-92 NSCLC
HT29 colon = system: HT29 colon
IGROV1 ovarian = system: IGROV1 ovarian
K-562 leukemia = system: K-562 leukemia
KM12 colon = system: KM12 colon
KM20L2 colon = system: KM20L2 colon
LOX IMVI melanoma = system: LOX IMVI melanoma
LXFL 529 NSCLC = system: LXFL 529 NSCLC
M14 melanoma = system: M14 melanoma
M19-MEL melanoma = system: M19-MEL melanoma
MALME-3M melanoma = system: MALME-3M melanoma
MOLT-4 leukemia = system: MOLT-4 leukemia
NCI-H226 lung = system: NCI-H226 lung
NCI-H23 lung = system: NCI-H23 lung
NCI-H460 lung = system: NCI-H460 lung
OVCAR-3 ovarian = system: OVCAR-3 ovarian
OVCAR-4 ovarian = system: OVCAR-4 ovarian
OVCAR-5 ovarian = system: OVCAR-5 ovarian
OVCAR-8 ovarian = system: OVCAR-8 ovarian
RPMI-8226 leukemia = system: RPMI-8226 leukemia
RXF 393 renal = system: RXF 393 renal
RXF-631 renal = system: RXF-631 renal
SF-268 CNS = system: SF-268 CNS
SF-295 CNS = system: SF-295 CNS
SF-539 CNS = system: SF-539 CNS
SK-MEL-2 melanoma = system: SK-MEL-2 melanoma
SK-MEL-28 melanoma = system: SK-MEL-28 melanoma
SK-MEL-5 melanoma = system: SK-MEL-5 melanoma
SK-OV-3 ovarian = system: SK-OV-3 ovarian
SN12C renal = system: SN12C renal
SNB-19 CNS = system: SNB-19 CNS
SNB-75 CNS = system: SNB-75 CNS
SNB-78 CNS = system: SNB-78 CNS
SR leukemia = system: SR leukemia
SW-620 colon = system: SW-620 colon
TK-10 renal = system: TK-10 renal
U251 CNS = system: U251 CNS
UACC-257 melanoma = system: UACC-257 melanoma
UACC-62 melanoma = system: UACC-62 melanoma
UO-31 renal = system: UO-31 renal
XF 498 CNS = system: XF 498 CNS
A498 renal = system: A498 renal
NCI-H522 lung = system: NCI-H522 lung

FC(F)(F)c1nc(Br)[nH]c1C(F)(F)F
TGI (786-0 renal): > 100 µM
TGI (A549 NSCLC): > 100 µM
TGI (ACHN renal): > 100 µM
TGI (CAKI-1 renal): > 100 µM
TGI (CCRF-CEM leukemia): > 100 µM
TGI (COLO 205 colon): > 100 µM
TGI (DLD-1 colon): > 100 µM
TGI (DMS 114 small cell lung): > 100 µM
TGI (DMS 273 small cell lung): > 100 µM
TGI (EKVX NSCLC): > 100 µM
TGI (HCC-2998 colon): > 100 µM
TGI (HCT-116 colon): > 100 µM
TGI (HCT-15 colon): > 100 µM
TGI (HL-60(TB) leukemia): > 100 µM
TGI (HOP-18 NSCLC): 93.2 µM
TGI (HOP-62 NSCLC): 91.9 µM
TGI (HOP-92 NSCLC): 71.7 µM
TGI (HT29 colon): > 100 µM
TGI (IGROV1 ovarian): > 100 µM
TGI (K-562 leukemia): > 100 µM
TGI (KM12 colon): > 100 µM
TGI (KM20L2 colon): > 100 µM
TGI (LOX IMVI melanoma): > 100 µM
TGI (LXFL 529 NSCLC): > 100 µM
TGI (M14 melanoma): > 100 µM
TGI (M19-MEL melanoma): > 100 µM
TGI (MALME-3M melanoma): > 100 µM
TGI (MOLT-4 leukemia): > 100 µM
TGI (NCI-H226 lung): > 100 µM
TGI (NCI-H23 lung): > 100 µM
TGI (NCI-H460 lung): > 100 µM
TGI (OVCAR-3 ovarian): > 100 µM
TGI (OVCAR-4 ovarian): > 100 µM
TGI (OVCAR-5 ovarian): > 100 µM
TGI (OVCAR-8 ovarian): > 100 µM
TGI (RPMI-8226 leukemia): > 100 µM
TGI (RXF 393 renal): > 100 µM
TGI (RXF-631 renal): > 100 µM
TGI (SF-268 CNS): > 100 µM
TGI (SF-295 CNS): > 100 µM
TGI (SF-539 CNS): > 100 µM
TGI (SK-MEL-2 melanoma): > 100 µM
TGI (SK-MEL-28 melanoma): > 100 µM
TGI (SK-MEL-5 melanoma): > 100 µM
TGI (SK-OV-3 ovarian): > 100 µM
TGI (SN12C renal): > 100 µM
TGI (SNB-19 CNS): > 100 µM
TGI (SNB-75 CNS): > 100 µM
TGI (SNB-78 CNS): > 100 µM
TGI (SR leukemia): > 100 µM
TGI (SW-620 colon): > 100 µM
TGI (TK-10 renal): > 100 µM
TGI (U251 CNS): > 100 µM
TGI (UACC-257 melanoma): > 100 µM
TGI (UACC-62 melanoma): > 100 µM
TGI (UO-31 renal): > 100 µM
TGI (XF 498 CNS): > 100 µM

CNC(=O)NCCN1N=C(C)/C(=C\c2ccccc2)CC1=O
TGI (786-0 renal): > 100 µM
TGI (A498 renal): > 100 µM
TGI (A549 NSCLC): > 100 µM
TGI (ACHN renal): > 100 µM
TGI (CAKI-1 renal): > 100 µM
TGI (CCRF-CEM leukemia): > 100 µM
TGI (DLD-1 colon): > 100 µM
TGI (DMS 273 small cell lung): > 100 µM
TGI (HCC-2998 colon): > 100 µM
TGI (HCT-116 colon): > 100 µM
TGI (HL-60(TB) leukemia): > 100 µM
TGI (HOP-62 NSCLC): > 100 µM
TGI (HOP-92 NSCLC): > 100 µM
TGI (HT29 colon): > 100 µM
TGI (IGROV1 ovarian): > 100 µM
TGI (K-562 leukemia): > 100 µM
TGI (KM12 colon): > 100 µM
TGI (LOX IMVI melanoma): > 100 µM
TGI (LXFL 529 NSCLC): > 100 µM
TGI (M14 melanoma): > 100 µM
TGI (M19-MEL melanoma): > 100 µM
TGI (MALME-3M melanoma): > 100 µM
TGI (MOLT-4 leukemia): > 100 µM
TGI (NCI-H226 lung): > 100 µM
TGI (NCI-H23 lung): > 100 µM
TGI (NCI-H460 lung): > 100 µM
TGI (NCI-H522 lung): > 100 µM
TGI (OVCAR-3 ovarian): > 100 µM
TGI (OVCAR-4 ovarian): > 100 µM
TGI (OVCAR-5 ovarian): > 100 µM
TGI (OVCAR-8 ovarian): > 100 µM
TGI (RPMI-8226 leukemia): > 100 µM
TGI (RXF 393 renal): > 100 µM
TGI (RXF-631 renal): > 100 µM
TGI (SF-268 CNS): > 100 µM
TGI (SF-295 CNS): > 100 µM
TGI (SF-539 CNS): > 100 µM
TGI (SK-MEL-2 melanoma): > 100 µM
TGI (SK-MEL-28 melanoma): > 100 µM
TGI (SK-MEL-5 melanoma): > 100 µM
TGI (SK-OV-3 ovarian): > 100 µM
TGI (SN12C renal): > 100 µM
TGI (SNB-19 CNS): > 100 µM
TGI (SNB-75 CNS): > 100 µM
TGI (SNB-78 CNS): > 100 µM
TGI (SR leukemia): > 100 µM
TGI (SW-620 colon): > 100 µM
TGI (TK-10 renal): > 100 µM
TGI (U251 CNS): > 100 µM
TGI (UACC-257 melanoma): > 100 µM
TGI (UACC-62 melanoma): > 100 µM
TGI (UO-31 renal): > 100 µM
TGI (XF 498 CNS): > 100 µM

CCOC(OC1=C(C#N)CCCC1)C(CC)[Se]c1ccccc1[N+](=O)[O-] (configuration not stated)
TGI (786-0 renal): 34.2 µM
TGI (A498 renal): > 100 µM
TGI (A549 NSCLC): > 100 µM
TGI (ACHN renal): 80.7 µM
TGI (CAKI-1 renal): > 100 µM
TGI (CCRF-CEM leukemia): 49.6 µM
TGI (COLO 205 colon): > 100 µM
TGI (DLD-1 colon): 35.6 µM
TGI (DMS 114 small cell lung): 30.1 µM
TGI (DMS 273 small cell lung): 36.2 µM
TGI (EKVX NSCLC): 70 µM
TGI (HCC-2998 colon): 45.9 µM
TGI (HCT-116 colon): 36.8 µM
TGI (HCT-15 colon): 37.1 µM
TGI (HL-60(TB) leukemia): 46.1 µM
TGI (HOP-18 NSCLC): 74.1 µM
TGI (HOP-62 NSCLC): 88.8 µM
TGI (HOP-92 NSCLC): 40.6 µM
TGI (HT29 colon): 31.4 µM
TGI (IGROV1 ovarian): 72 µM
TGI (K-562 leukemia): > 100 µM
TGI (KM12 colon): 43.1 µM
TGI (KM20L2 colon): 31.4 µM
TGI (LOX IMVI melanoma): 30.9 µM
TGI (LXFL 529 NSCLC): 89.2 µM
TGI (M14 melanoma): 37.8 µM
TGI (M19-MEL melanoma): 37.2 µM
TGI (MALME-3M melanoma): > 100 µM
TGI (MOLT-4 leukemia): 71.2 µM
TGI (NCI-H226 lung): 43 µM
TGI (NCI-H23 lung): 31.3 µM
TGI (NCI-H460 lung): > 100 µM
TGI (NCI-H522 lung): 30.9 µM
TGI (OVCAR-3 ovarian): 95.4 µM
TGI (OVCAR-4 ovarian): 35.1 µM
TGI (OVCAR-5 ovarian): 66.8 µM
TGI (OVCAR-8 ovarian): 48.7 µM
TGI (RPMI-8226 leukemia): 43.4 µM
TGI (RXF 393 renal): 65.7 µM
TGI (SF-268 CNS): 43.6 µM
TGI (SF-295 CNS): 47 µM
TGI (SF-539 CNS): 37.8 µM
TGI (SK-MEL-2 melanoma): > 100 µM
TGI (SK-MEL-28 melanoma): 89.9 µM
TGI (SK-MEL-5 melanoma): 28.7 µM
TGI (SK-OV-3 ovarian): > 100 µM
TGI (SN12C renal): 42.7 µM
TGI (SNB-19 CNS): 72.5 µM
TGI (SNB-75 CNS): 49.5 µM
TGI (SNB-78 CNS): > 100 µM
TGI (SR leukemia): 38.9 µM
TGI (TK-10 renal): > 100 µM
TGI (U251 CNS): 30.9 µM
TGI (UACC-257 melanoma): > 100 µM
TGI (UACC-62 melanoma): 47 µM
TGI (UO-31 renal): 80.5 µM
TGI (XF 498 CNS): 61.5 µM
